The source made the active and inactive calls. The calls are words filed in the database; no cut-off is given here. *1 amine or outer side, *2 acyl side, *3 side chain or, on linkers, in order; H or OH if unused. Where a SMILES comes first, the peptide text is derived from it. Bridges are numbered along the chain shown (N, C = ends). Roman numbers before positions name the chains, in order. [ ]: non-standard residue; d: D form. Actinocin(1to9) = Cc1c2oc3c(C)ccc(C(=O)[*:2])c3nc-2c(C(=O)[*:1])c(N)c1=O; NMeV = CN[C@H](C(=O)O)C(C)C; Sar = CNCC(=O)O
Columns and labels:
HeLa = experiment: Antiproliferative activity against human HeLa cells by MTT assay; assay type: functional, cell-based
C8166 = experiment: Antiproliferative activity against human C8166 cell line by MTT assay; assay type: functional, cell-based
KB = experiment: Antiproliferative activity against human KB cell line by MTT assay; assay type: functional, cell-based
G-361 = experiment: Antiproliferative activity against human G361 cell line by MTT assay; assay type: functional, cell-based
MT4 = experiment: Antiproliferative activity against human MT4 cell line by MTT assay; assay type: functional, cell-based
CCRF-CEM = experiment: Antiproliferative activity against human CCRF-CEM cell line by MTT assay; assay type: functional, cell-based
HEp-2 = experiment: Antiproliferative activity against human Hep2 cell line by MTT assay; assay type: functional, cell-based
WIL2-NS = experiment: Antiproliferative activity against human Wil2-NS cells by MTT assay; assay type: functional, cell-based
5637 = experiment: Antiproliferative activity against human 5637 cell line by MTT assay; assay type: functional, cell-based
ACHN = experiment: Antiproliferative activity against human ACHN cell line by MTT assay; assay type: functional, cell-based
HT-29 [1] = experiment: Antiproliferative activity against human HT29 cell line by MTT assay; assay type: functional, cell-based
MOLT-4 = experiment: Antiproliferative activity against human MOLT4 cell line by MTT assay; assay type: functional, cell-based
CCRF-SB = experiment: Antiproliferative activity against human CCRF-SB cell line by MTT assay; assay type: functional, cell-based
[2] = target: T1, DNA topoisomerase 1 (Homo sapiens) (UniProt P11387); experiment: Promotion of human topoisomerase 1-mediated DNA cleavage
T1 sequence (whole entry): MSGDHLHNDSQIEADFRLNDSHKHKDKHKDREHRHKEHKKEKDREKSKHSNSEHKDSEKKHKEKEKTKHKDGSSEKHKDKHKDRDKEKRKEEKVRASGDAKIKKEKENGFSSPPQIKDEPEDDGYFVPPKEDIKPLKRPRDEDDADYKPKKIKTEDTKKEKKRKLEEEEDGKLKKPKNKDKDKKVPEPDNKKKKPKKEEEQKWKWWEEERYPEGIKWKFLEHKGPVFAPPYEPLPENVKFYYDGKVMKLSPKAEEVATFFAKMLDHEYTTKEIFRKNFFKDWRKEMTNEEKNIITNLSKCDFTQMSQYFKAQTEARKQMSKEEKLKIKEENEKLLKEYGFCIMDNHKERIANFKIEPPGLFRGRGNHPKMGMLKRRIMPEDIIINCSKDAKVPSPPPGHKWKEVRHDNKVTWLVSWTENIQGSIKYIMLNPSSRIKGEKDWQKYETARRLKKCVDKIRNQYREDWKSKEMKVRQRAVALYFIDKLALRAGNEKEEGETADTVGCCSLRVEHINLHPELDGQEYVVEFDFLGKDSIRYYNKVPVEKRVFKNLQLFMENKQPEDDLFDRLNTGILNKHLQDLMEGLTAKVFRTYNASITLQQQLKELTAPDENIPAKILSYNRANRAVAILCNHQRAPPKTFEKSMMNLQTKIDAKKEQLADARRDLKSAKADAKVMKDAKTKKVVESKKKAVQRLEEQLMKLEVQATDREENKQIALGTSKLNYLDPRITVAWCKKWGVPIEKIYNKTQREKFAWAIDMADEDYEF

HT-29 [3] = experiment: Cell cycle arrest in HT29 cells by accumulation at G2/M phase by flow cytometry at […]; assay type: functional, Homo sapiens
HT-29 [4] = experiment: Cell cycle arrest in HT29 cells by accumulation at G0/G1 phase by flow cytometry at […]; assay type: functional, Homo sapiens
HT-29 [5] = experiment: Cell cycle arrest in HT29 cells by accumulation at S phase by flow cytometry at […]; assay type: functional, Homo sapiens
[6] = target: DNA topoisomerase II (Homo sapiens) (UniProt P11388+Q02880); experiment: Promotion of human topoisomerase 2-mediated DNA cleavage; assay type: protein assay
[7] = target: T1, DNA topoisomerase 1 (Homo sapiens); experiment: Unwinding of DNA mediated by topoisomerase 1 at 20 uM

Row | Compound | IC50 (HeLa) [µM] | IC50 (KB) [µM] | IC50 (CCRF-CEM) [µM] | IC50 (ACHN) [µM] | IC50 (HT-29 [1]) [µM] | IC50 (MOLT-4) [µM] | IC50 (CCRF-SB) [µM] | Activity [2] | Activity [6] | Activity [7] | IC50 (C8166) [µM] | IC50 (G-361) [µM] | IC50 (MT4) [µM] | IC50 (HEp-2) [µM] | IC50 (WIL2-NS) [µM] | IC50 5637 [µM] | Activity (HT-29 [3]) [%] | Activity (HT-29 [4]) [%] | Activity (HT-29 [5]) [%]
1 | Cc1ccc2oc3cc(=O)c4ncccc4c-3nc2c1C | 2.6 | 0.7 | 0.2 | 1.8 | 1.2 | 2.7 | 1.2 |  |  |  | 1.1 | 1.3 | 0.3 | 1.3 | 2 | 0.9 |  |  | 
2 | Cc1cc(C)c2oc3cc(=O)c4ncccc4c-3nc2c1 | 1.7 | 1.2 | 0.15 | 0.9 | 1.6 | 1.2 | 0.3 |  |  |  | 0.5 | 1.5 | 0.1 | 1.1 | 0.9 | 0.6 |  |  | 
3 | O=c1cc2oc3cc4c(cc3nc-2c2cccnc12)CCCC4 | 1.1 | 1 | 1.1 | 1.4 | 3.3 | 1.8 | 2 |  |  |  | 1 | 1.5 | 1.5 | 1.7 | 1.2 | 1 |  |  | 
4 | Cc1ccc2nc3c4cccnc4c(=O)cc-3oc2c1C | 0.6 | 0.4 | 6 | 0.005 | 6.9 | 3 | 0.1 |  |  |  | 0.5 | 0.03 | 0.3 | 0.4 | 1.8 | 1.8 |  |  | 
5 | Cc1cc(C)c2nc3c4cccnc4c(=O)cc-3oc2c1 | 0.2 | 0.3 | 0.1 | 0.001 | 0.2 | 0.5 | 0.02 |  |  |  | 0.2 | 0.001 | 0.04 | 0.3 | 0.07 | 0.005 |  |  | 
6 | COc1cccc2c1C(=O)c1c(O)c3c(c(O)c1C2=O)C[C@@](O)(C(=O)CO)C[C@@H]3O[C@H]1C[C@H](N)[C@H](O)[C@H](C)O1 [DOXORUBICIN] |  | 0.15 |  | 0.001 |  |  |  |  |  |  |  |  |  |  |  |  |  |  | 
7 | O=c1cc2oc3ccc4c(c3nc-2c2cccnc12)CCCC4 | 1.6 | 1.7 | 1.3 | 1.8 | 1 | 3.2 | 1 |  |  |  | 2 | 1.3 | 1.3 | 1.9 | 4 | 1.9 |  |  | 
8 | O=c1cc2oc3c4c(ccc3nc-2c2cccnc12)CCCC4 | 2.5 | 1 | 1.9 | 1.9 | 2.1 | 1.9 | 1.4 |  |  |  | 1 | 2 | 1.5 | 1.8 | 2.1 | 1.1 |  |  | 
9 | Cc1ccc(C)c2oc3cc(=O)c4ncccc4c-3nc12 | 0.9 | 0.5 | 0.7 | 0.5 | 5.5 | 1.6 | 0.4 |  |  |  | 8 | 0.7 | 0.08 | 0.4 | 1.1 | 0.01 |  |  | 

Stronger by IC50 (KB), values ahead:

Row | IC50 (HeLa) [µM] | IC50 (KB) [µM] | IC50 (CCRF-CEM) [µM] | IC50 (ACHN) [µM] | IC50 (HT-29 [1]) [µM] | IC50 (MOLT-4) [µM] | IC50 (CCRF-SB) [µM] | Activity [2] | Activity [6] | Activity [7] | Compound | IC50 (C8166) [µM] | IC50 (G-361) [µM] | IC50 (MT4) [µM] | IC50 (HEp-2) [µM] | IC50 (WIL2-NS) [µM] | IC50 5637 [µM] | Activity (HT-29 [3]) [%] | Activity (HT-29 [4]) [%] | Activity (HT-29 [5]) [%]
10 | 0.2 | 0.1 | 0.05 | 0.5 | 0.3 | 0.09 | 0.02 | inactive | inactive |  | O=c1cc2oc3c(ccc4ccccc43)nc-2c2cccnc12 | 0.1 | 0.05 | 0.1 | 0.06 | 0.06 | 0.1 | 38.49 | 17.63 | 43.88
11 |  | 0.1 |  |  | 0.2 |  | 0.01 |  |  |  | O=c1cc2oc3ccccc3nc-2c2cccnc12 |  |  | 0.02 |  |  |  |  |  | 
12 | 0.001 | 0.01 | 0.001 | 0.01 | 0.002 | 0.04 | 0.01 | inactive | inactive | Active | O=c1cc2oc3ccc4ccccc4c3nc-2c2cccnc12 | 0.001 | 0.02 | 0.01 | 0.04 | 0.005 | 0.01 | 48.66 | 27.93 | 23.42
13 | 0.8 | 0.09 | 0.15 | 0.4 | 0.03 | 0.3 | 0.04 |  |  |  | Cc1cc2nc3c4cccnc4c(=O)cc-3oc2cc1C | 0.04 | 0.9 | 0.1 | 0.8 | 0.4 | 0.8 |  |  | 
14 |  | 0.001 |  |  |  |  |  |  |  |  | Cc1c2oc3c(C)ccc(C(=O)N[C@@H]4C(=O)N[C@H](C(C)C)C(=O)N5CCC[C@H]5C(=O)N(C)CC(=O)N(C)[C@@H](C(C)C)C(=O)O[C@@H]4C)c3nc-2c(C(=O)N[C@@H]2C(=O)N[C@H](C(C)C)C(=O)N3CCC[C@H]3C(=O)N(C)CC(=O)N(C)[C@@H](C(C)C)C(=O)O[C@@H]2C)c(N)c1=O [DACTINOMYCIN] (I: T[dV]P[Sar][NMeV] / II: T[dV]P[Sar][NMeV]; ester I:1-I:C, II:1-II:C; linker I:N-II:N via Actinocin(1to9)) |  |  |  |  |  |  |  |  | 
15 | 0.05 | 0.02 | 0.004 | 0.02 | 0.03 | 0.01 | 0.01 | inactive | inactive |  | O=c1cc2oc3cc4ccccc4cc3nc-2c2cccnc12 | 0.02 | 0.01 | 0.05 | 0.05 | 0.01 | 0.02 | 55.01 | 24.06 | 20.93

From ChEMBL document CHEMBL1145337, “Antitumor agents. 5. synthesis, structure-activity relationships, and biological evaluation of dimethyl-5H-pyridophenoxazin-5-ones, tetrahydro-5h-benzopyridophenoxazin-5-ones, and 5h-benzopyridophenoxazin-5-ones with potent antiproliferative activity” (J Med Chem, 2006)
